Measured values published in PubChem BioAssay AID1918938 (Molecular Pharmacology Branch, DTP, NCI, 2023).

Tested on: 556581-035-R-J1-PDC complex spheroid viability
Assay: Anticancer human tumor 556581-035-R-J1-PDC patient-derived ovarian carcinoma cell line growth inhibition
Settings: for IC50: curve of first compound; for viability, T/C: stronger effect = lower value
Method in brief: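 Multicellular complex spheroids of tumor cells with human endothelial cells (HUVEC) and mesenchymal stem cells; the LSD1 inhibitor iadademstat was combined with standard-of-care or investigational agents. Top concentration at or near clinical Cmax, half-log dilutions; final DMSO ≤0.25%.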

[1] = second compound 0.1 µM, first compound 0.0316 µM
[2] = second compound 0.1 µM, first compound 0.1 µM
[3] = second compound 0.1 µM, first compound 0.316 µM
[4] = second compound 0.1 µM, first compound 1 µM
[5] = second compound 0.1 µM, first compound 3.16 µM
[6] = second compound 0.1 µM, first compound 10 µM
[7] = second compound 0.316 µM, first compound 0.0316 µM
[8] = second compound 0.316 µM, first compound 0.1 µM
[9] = second compound 0.316 µM, first compound 0.316 µM
[10] = second compound 0.316 µM, first compound 1 µM
[11] = second compound 0.316 µM, first compound 3.16 µM
[12] = second compound 0.316 µM, first compound 10 µM
[13] = second compound 1 µM, first compound 0.0316 µM
[14] = second compound 1 µM, first compound 0.1 µM
[15] = second compound 1 µM, first compound 0.316 µM
[16] = second compound 1 µM, first compound 1 µM
[17] = second compound 1 µM, first compound 3.16 µM
[18] = second compound 1 µM, first compound 10 µM
[19] = second compound 3.16 µM, first compound 0.0316 µM
[20] = second compound 3.16 µM, first compound 0.1 µM
[21] = second compound 3.16 µM, first compound 0.316 µM
[22] = second compound 3.16 µM, first compound 1 µM
[23] = second compound 3.16 µM, first compound 3.16 µM
[24] = second compound 3.16 µM, first compound 10 µM
[25] = second compound 10 µM, first compound 0.0316 µM
[26] = second compound 10 µM, first compound 0.1 µM
[27] = second compound 10 µM, first compound 0.316 µM
[28] = second compound 10 µM, first compound 1 µM
[29] = second compound 10 µM, first compound 3.16 µM
[30] = second compound 10 µM, first compound 10 µM
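Further: spheroids exposed to agents for seven days.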
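Wherever viability, T/C is given: 100% = DMSO vehicle control wells.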

Compound `CC(C)c1c(-c2ccccc2)nc2c(C#N)c[nH]n2c1=O` + NC1CC1c1ccc(-c2cccc(O)c2)cc1 has an IC50 (second compound 0.1 µM) greater than 10 µM, an IC50 (second compound 0.316 µM) greater than 10 µM and an IC50 (second compound 1 µM) greater than 10 µM. It also gave an IC50 (second compound 3.16 µM) greater than 10 µM, an IC50 (second compound 10 µM) greater than 10 µM and a viability, T/C [1] of 100%. The viability, T/C [2] was 103%, the viability, T/C [3] was 95.8% and the viability, T/C [4] was 89.3%. For the same compound, the viability, T/C [5] was 88.8%, the viability, T/C [6] was 64% and the viability, T/C [7] was 90.6%. The viability, T/C [8] was 82.5%, the viability, T/C [9] was 86.4% and the viability, T/C [10] was 85.2%. It also gave a viability, T/C [11] of 73.6%, a viability, T/C [12] of 79.9% and a viability, T/C [13] of 96.4%. The viability, T/C [14] was 101%, the viability, T/C [15] was 79.7% and the viability, T/C [16] was 76.5%. It also gave a viability, T/C [17] of 69.8%, a viability, T/C [18] of 60.2% and a viability, T/C [19] of 85.6%. The viability, T/C [20] was 82.5%, the viability, T/C [21] was 84.8% and the viability, T/C [22] was 86.7%. The viability, T/C [23] was 77.9%, the viability, T/C [24] was 69.3% and the viability, T/C [25] was 92.6%. The viability, T/C [26] was 91.2%, the viability, T/C [27] was 89.4% and the viability, T/C [28] was 75.4%. For the same compound, the viability, T/C [29] was 66.1% and the viability, T/C [30] was 59.6%.

Compound `CC1COCCN1c1cc(-c2ccnn2C)c2ccnc(-c3ccn[nH]3)c2n1` (stereo not given) + NC1CC1c1ccc(-c2cccc(O)c2)cc1 has an IC50 (second compound 0.1 µM) of 0.00522 µM, an IC50 (second compound 0.316 µM) of 0.00445 µM and an IC50 (second compound 1 µM) of 0.0033 µM. For the same compound, the IC50 (second compound 3.16 µM) was 0.00531 µM, the IC50 (second compound 10 µM) was 0.00898 µM and the viability, T/C (second compound 0.1 µM, first compound 0.00316 µM) was 54.8%. The viability, T/C (second compound 0.1 µM, first compound 0.01 µM) was 44%, the viability, T/C [1] was 33.5% and the viability, T/C [2] was 25.4%. The viability, T/C [3] was 21.7%, the viability, T/C [4] was 10.2% and the viability, T/C (second compound 0.316 µM, first compound 0.00316 µM) was 51.2%. It also gave a viability, T/C (second compound 0.316 µM, first compound 0.01 µM) of 47.9%, a viability, T/C [7] of 33.4% and a viability, T/C [8] of 23.8%. For the same compound, the viability, T/C [9] was 23%, the viability, T/C [10] was 10.6% and the viability, T/C (second compound 1 µM, first compound 0.00316 µM) was 49.5%. The viability, T/C (second compound 1 µM, first compound 0.01 µM) was 47.1%, the viability, T/C [13] was 34.3% and the viability, T/C [14] was 26.4%. It also gave a viability, T/C [15] of 26.1%, a viability, T/C [16] of 9.41% and a viability, T/C (second compound 3.16 µM, first compound 0.00316 µM) of 54.6%. It also gave a viability, T/C (second compound 3.16 µM, first compound 0.01 µM) of 44.5%, a viability, T/C [19] of 38.5% and a viability, T/C [20] of 29.2%. It also gave a viability, T/C [21] of 26.9%, a viability, T/C [22] of 11% and a viability, T/C (second compound 10 µM, first compound 0.00316 µM) of 55.3%. The viability, T/C (second compound 10 µM, first compound 0.01 µM) was 49.9%, the viability, T/C [25] was 36.4% and the viability, T/C [26] was 29.7%. The viability, T/C [27] was 26% and the viability, T/C [28] was 25.6%.

Compound `CC1COCCN1c1cc(C2(S(C)(=N)=O)CC2)nc(-c2ccnc3[nH]ccc23)n1` (stereo not given) + NC1CC1c1ccc(-c2cccc(O)c2)cc1 has an IC50 (second compound 0.1 µM) of 5.95 µM, an IC50 (second compound 0.316 µM) of 5.94 µM and an IC50 (second compound 1 µM) of 5.37 µM. The IC50 (second compound 3.16 µM) was greater than 10 µM, the IC50 (second compound 10 µM) was greater than 10 µM and the viability, T/C [1] was 101%. For the same compound, the viability, T/C [2] was 98.6%, the viability, T/C [3] was 78.9% and the viability, T/C [4] was 72.3%. The viability, T/C [5] was 52.5%, the viability, T/C [6] was 46.7% and the viability, T/C [7] was 95.3%. It also gave a viability, T/C [8] of 85.5%, a viability, T/C [9] of 77.8% and a viability, T/C [10] of 70.7%. The viability, T/C [11] was 52.6%, the viability, T/C [12] was 46.3% and the viability, T/C [13] was 87.9%. For the same compound, the viability, T/C [14] was 88.9%, the viability, T/C [15] was 84.3% and the viability, T/C [16] was 77.4%. The viability, T/C [17] was 53.7%, the viability, T/C [18] was 45.5% and the viability, T/C [19] was 87.9%. It also gave a viability, T/C [20] of 96%, a viability, T/C [21] of 85.5% and a viability, T/C [22] of 70.5%. The viability, T/C [23] was 54.2%, the viability, T/C [24] was 50.9% and the viability, T/C [25] was 88.4%. It also gave a viability, T/C [26] of 84.8%, a viability, T/C [27] of 78.3% and a viability, T/C [28] of 69.7%. For the same compound, the viability, T/C [29] was 51.3% and the viability, T/C [30] was 54.7%.
